The values that follow come from patent US4533670A, “Anti-convulsant fluorenylalkylimidazole derivatives, compositions, and method of use” (Eli Lilly and Company, priority 1983, dated 1985).

Molecules are shown by their SMILES. Structures can show the parent of a compound that is named as a salt.

The first data set has as its system extensor tonic convulsions. Put plainly: Electroshock induced convulsion inhibition assay. The data set is classed as in vivo, Cox standard strain albino male mice. The conditions noted are these: Mus musculus, po, 1 h; p.o. (gavage), mice; 60 minutes after administration (optimal time); 0.1 second, 50 milliampere corneal electroshock; read-out: ED50 (dose which inhibited extensor tonic convulsions in one half of the animals). The source says:
The compounds of Formula II are anticonvulsant agents with a high therapeutic ratio and long half-life and are therefore useful in the treatment and/or prevention of convulsions in mammals. In particular, the compounds are effective against tonic extensor seizures elicited by maximal electroshock and should therefore be useful for treating generalized tonic-clonic ("grand mal"), cortical focal, complex partial (temporal lobe epilepsy), simple partial (focal motor), and post-traumaticseizures in humans. […] In the electroshock induced convulsion inhibition assay, the compound to be tested was dissolved in water (5%--sufficient hydrochloric acid was added for those compounds which were not isolated as a salt in order to effect dissolution) and administered by gavage to each of three Cox standard strain albino male mice (18-24 g.) at the dose level being investigated. Sixty to 240 minutes after compound administration, the mice were subjected to a 0.1 second, 50 milliampere electroshock through corneal electrodes. The animals were examined and evaluated immediately after the electroshock for the occurrence of clonic, flexor tonic, or extensor tonic convulsions, or death and the ED50 was determined for each compound (for the particular time after administration of the compound) as the dose which inhibited the occurrence of extensor tonic convulsions in one half of the animals immediately after the electroshock. For comparison, 18 milliamperes was usually sufficient to produce extensor tonic convulsions in about half of the control animals; at 50 milliamperes, almost all control animals (receiving vehicle only) died. The test results are summarized in Table I as the ED50 's at the optimal time after compound administration.
Consider `Cc1cn(CC(=O)c2ccc3c(c2)Cc2ccccc2-3)cn1.Cl` [Example 3, 1-(9H-fluoren-2-yl)-2-(4-methyl-1H-imidazol-1-yl)ethanone hydrochloride], for which the median effective dose (ED50) amounted to 90 mg/kg.

As for `CC1(C)c2ccccc2-c2ccc(C(=O)Cn3ccnc3)cc21.Cl` [Example 6, 1-(9,9-Dimethyl-9H-fluoren-2-yl)-2-(1H-imidazol-1-yl)ethanone hydrochloride], the ED50 came out at 48 mg/kg.

On to `CCC(C(=O)c1ccc2c(c1)Cc1ccccc1-2)n1ccnc1.Cl` (stereo not shown) [Example 13, 2-(1H-imidazol-1-yl)-1-(9H-fluoren-2-yl)-1-butanone hydrochloride], for which the median effective dose (ED50) stood at 50 mg/kg.

As to `Cl.O=C(CCn1ccnc1)c1ccc2c(c1)Cc1ccccc1-2` [Example 11, 1-(9H-fluoren-2-yl)-3-(1H-imidazol-1-yl)-1-propanone hydrochloride], the median effective dose (ED50) is 19 mg/kg.

Consider `Cl.O=C(Cn1ccnc1)c1cccc2c1-c1ccccc1C2` [Example 10, 1-(9H-fluoren-4-yl)-2-(1H-imidazol-1-yl)ethanone hydrochloride], for which the ED50 came out at 44 mg/kg.

Turning to `OC(CCn1ccnc1)c1ccc2c(c1)Cc1ccccc1-2` (stereo not shown) [Example 15, 1-(9H-fluoren-2-yl)-3-(1H-imidazol-1-yl)-1-propanol], the median effective dose (ED50) is 33 mg/kg.

With `c1ccc2c(c1)Cc1cc(C3(CCn4ccnc4)OCCO3)ccc1-2` [Example 22, 1-(2-[2-(9H-fluoren-2-yl)-1,3-dioxolan-2-yl]ethyl)-1H-imidazole], the 50% effective dose (ED50) came out at 26 mg/kg.

`Cl.c1ccc2c(c1)Cc1cc(C3(Cn4ccnc4)OCCCO3)ccc1-2` [Example 21, 1-([2-(9H-fluoren-2-yl)-1,3-dioxan-2-yl]methyl)-1H-imidazole hydrochloride]: the ED50 is 32 mg/kg.

As to `CCSC(Cn1ccnc1)c1ccc2c(c1)Cc1ccccc1-2.Cl` (stereo not shown) [Example 17, 1-[2-(Ethylthio)-2-(9H-fluoren-2-yl)ethyl]-1H-imidazole hydrochloride], the ED50 was found to be 44 mg/kg.

With `O=C(OC(Cn1ccnc1)c1ccc2c(c1)Cc1ccccc1-2)c1ccccc1` (stereo not shown) [Example 16, 1-(9H-fluoren-2-yl)-2-(1H-imidazol-1-yl)-1-ethanol, benzoate ester hydrochloride], the ED50 amounted to 32 mg/kg.

Take `OC(Cn1ccnc1)c1ccc2c(c1)Cc1ccccc1-2` (stereo not shown) [Example 14, 1-(9H-fluoren-2-yl)-2-(1H-imidazol-1-yl)-1-ethanol]: the ED50 is 22 mg/kg.

Take `Cc1nccn1CC(=O)c1ccc2c(c1)Cc1ccccc1-2.Cl` [Example 1, 1-(9H-fluoren-2-yl)-2-(2-methyl-1H-imidazol-1-yl)ethanone hydrochloride]: the ED50 came to 210 mg/kg.

Staying with this data set, now noted: Mus musculus, po, 1.5 h; p.o. (gavage), mice; 90 minutes after administration (optimal time); 0.1 second, 50 milliampere corneal electroshock; read-out: ED50 (dose which inhibited extensor tonic convulsions in one half of the animals).
On to `CC(C(=O)c1ccc2c(c1)Cc1ccccc1-2)n1ccnc1.Cl` (stereo not shown) [Example 12, 2-(1H-imidazol-1-yl)-1-(9H-fluoren-2-yl)-1-propanone hydrochloride], for which the 50% effective dose (ED50) is 35 mg/kg.

Staying with this data set, now noted: Mus musculus, po, 2 h; p.o. (gavage), mice; 120 minutes after administration (optimal time); 0.1 second, 50 milliampere corneal electroshock; read-out: ED50 (dose which inhibited extensor tonic convulsions in one half of the animals).
With `CC1(C)COC(Cn2ccnc2)(c2ccc3c(c2)Cc2ccccc2-3)OC1` [Example 20, 1-([2-(9H-fluoren-2-yl)-5,5-dimethyl-1,3-dioxan-2yl]methyl)-1H-imidazole], the 50% effective dose (ED50) is 65 mg/kg.

Consider `CC1c2ccccc2-c2ccc(C(=O)Cn3ccnc3)cc21.Cl` (stereo not shown) [Example 5, 2-(1H-imidazol-1-yl)-1-(9-methyl-9H-fluoren-2-yl)ethanone hydrochloride], for which the ED50 came to 33 mg/kg.

As to `Cc1ccc2c(c1)Cc1cc(C(=O)Cn3ccnc3)ccc1-2.Cl` [Example 7, 2-(1H-imidazol-1-yl)-1-(7-methyl-9H-fluoren-2-yl)ethanone hydrochloride], the 50% effective dose (ED50) is 68 mg/kg.

Regarding `Cl.O=C(Cn1ccnc1)c1cccc2c1Cc1ccccc1-2` [Example 9, 1-(9H-fluoren-1-yl)-2-(1H-imidazol-1-yl)ethanone hydrochloride], the ED50 turned out to be 20 mg/kg.

As to `CCc1nccn1CC(=O)c1ccc2c(c1)Cc1ccccc1-2` [Example 2, 2-(2-ethyl-1H-imidazol-1-yl)-1-(9H-fluoren-2-yl)ethanone], the median effective dose (ED50) was determined as 188 mg/kg.

For `Cl.O=C(Cn1ccnc1)c1ccc2c(c1)Cc1cc(Br)ccc1-2` [Example 4, 2-(1H-imidazol-1-yl)-1-(7-bromo-9H-fluoren-2-yl)ethanone hydrochloride], the ED50 came to 79 mg/kg.

`CC1COC(Cn2ccnc2)(c2ccc3c(c2)Cc2ccccc2-3)O1` (stereo not shown) [Example 19, 1-([2-(9H-fluoren-2-yl)-4-methyl-1,3-dioxolan-2-yl]methyl)-1H-imidazole]: the median effective dose (ED50) turned out to be 21 mg/kg.

As to `CC(O)(Cn1ccnc1)c1ccc2c(c1)Cc1ccccc1-2` (stereo not shown) [Example 24, 1-(1H-imidazol-1-yl)-2-(9H-fluoren-2-yl)-2-propanol], the ED50 came out at 14 mg/kg.

With `Cl.c1ccc2c(c1)Cc1cc(C3(Cn4ccnc4)SCCS3)ccc1-2` [Example 23, 1-([2-(9H-fluoren-2-yl)-1,3-dithiolan-2-yl]methyl)-1H-imidazole hydrochloride], the ED50 turned out to be 41 mg/kg.

The data set is the same for the next values; noted with them: Mus musculus, po, 3 h; p.o. (gavage), mice; 180 minutes after administration (optimal time); 0.1 second, 50 milliampere corneal electroshock; read-out: ED50 (dose which inhibited extensor tonic convulsions in one half of the animals).
Regarding `Cl.O=C(Cn1ccnc1)c1ccc2c(c1)Cc1ccccc1-2` [Example 8, 2-(1H-imidazol-1-yl)-1-(9H-fluoren-2-yl)ethanone hydrochloride], the median effective dose (ED50) is 25 mg/kg.

The data set is the same for the next values; noted with them: Mus musculus, po, 4 h; p.o. (gavage), mice; 240 minutes after administration (optimal time); 0.1 second, 50 milliampere corneal electroshock; read-out: ED50 (dose which inhibited extensor tonic convulsions in one half of the animals).
With `c1ccc2c(c1)Cc1cc(C3(Cn4ccnc4)OCCO3)ccc1-2` [Example 18, 1-([2-(9H-fluoren-2-yl)-1,3-dioxolan-2-yl]methyl)-1H-imidazole], the ED50 came to 23 mg/kg.

Another data set deals with seizures.
Test: not given
The conditions noted are these: man; cited from earlier work.
Turning to `O=C1NC(=O)C(c2ccccc2)(c2ccccc2)N1` [phenytoin], the “plasma level at which seizures are controlled” value was not below 10 µg/mL.

Tested on in another data set: not given
Test: not given
The conditions noted are these: man, ataxia; cited from earlier work.
Turning to `O=C1NC(=O)C(c2ccccc2)(c2ccccc2)N1` [phenytoin], the “plasma level at which ataxia is obvious” value was 30000 ng/mL.

The data set is the same for the next values; noted with them: man, lethargy; cited from earlier work.
As for `O=C1NC(=O)C(c2ccccc2)(c2ccccc2)N1` [phenytoin], the “plasma level at which lethargy is apparent” value is reported as “about 40 mcg./ml”.

The data set is the same for the next values; noted with them: man, nystagmus; cited from earlier work.
In the case of `O=C1NC(=O)C(c2ccccc2)(c2ccccc2)N1` [phenytoin], the “plasma level at which nystagmus is seen” value was “around 20 mcg./ml”.
